Drawing on patent US20260250289A1, “BICYCLIC HETEROCYCLES AND THEIR USE AS WRN INHIBITORS” (Novartis AG, priority 2022, published 2026), this text covers GI50 and IC50 for 18 compounds.

One experiment relates to DLD1-WRN-KO cells. In words: Proliferation assay DLD1-WRN-KO (CellTiterGlo, off-target effects). It is filed as cell-based. The conditions noted are these: 96 hours, geometric mean of at least 2. Summed up:
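DLD1 cells with CRISPR knockout of WRN were exposed overnight-seeded to eight 3-fold compound dilutions (0.1% DMSO) for 96 h at 37 °C. Viability was read as ATP by CellTiterGlo luminescence against a day-0 plate, giving GI50 and residual viability at top concentration.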

The subject of a further experiment is SW48 cells. In words: Proliferation assay SW48 (CellTiterGlo). In kind it is cell-based. Conditions: Homo sapiens, SW48, 96 h, SW48 colon carcinoma cells, 96 hours, CellTiterGlo; geometric mean of at least 2; read-out: Proliferation Assay SW48 GI50. Summed up: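 SW48 cells, 2,000/well, treated after overnight seeding with eight 3-fold compound dilutions (0.1% DMSO) for 96 hours at 37° C. Viability read as ATP by CellTiterGlo luminescence, normalised to a day-0 plate and vehicle to give % growth; GI50 is geometric mean of ≥2 independent replicates.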

Experiment [1] deals with T1, WRN helicase (aa N517-P1238) (Homo sapiens, UniProt Q14191).
T1 construct: The core helicase motif of the WRN protein (aa N517-P1238) was produced for this assay; His (N); ZZ (N); 3C protease cleavage site (N); made in house; host or cells: Sf21 insect cells (baculovirus; virus and BIICs made in SF9)
T1 sequence (Q14191 517-1238): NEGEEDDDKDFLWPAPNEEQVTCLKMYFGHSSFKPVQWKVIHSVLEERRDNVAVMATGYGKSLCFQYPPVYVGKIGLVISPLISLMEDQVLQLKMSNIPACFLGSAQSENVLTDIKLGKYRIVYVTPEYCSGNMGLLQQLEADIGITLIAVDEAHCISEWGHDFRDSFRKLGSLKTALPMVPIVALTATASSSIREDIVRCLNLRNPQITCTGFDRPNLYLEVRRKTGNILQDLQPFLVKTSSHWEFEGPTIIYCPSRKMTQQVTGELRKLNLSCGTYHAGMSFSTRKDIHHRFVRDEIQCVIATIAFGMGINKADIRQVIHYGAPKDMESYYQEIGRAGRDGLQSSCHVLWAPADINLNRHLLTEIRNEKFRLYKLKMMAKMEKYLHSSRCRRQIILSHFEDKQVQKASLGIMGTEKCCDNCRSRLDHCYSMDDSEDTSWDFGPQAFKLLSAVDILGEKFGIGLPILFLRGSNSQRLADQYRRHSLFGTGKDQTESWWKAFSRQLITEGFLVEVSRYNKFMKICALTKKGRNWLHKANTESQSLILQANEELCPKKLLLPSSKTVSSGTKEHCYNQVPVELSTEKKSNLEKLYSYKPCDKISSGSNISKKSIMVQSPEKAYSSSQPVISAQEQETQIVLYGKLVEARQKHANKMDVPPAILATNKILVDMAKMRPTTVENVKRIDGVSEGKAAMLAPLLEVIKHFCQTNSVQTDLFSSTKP
Nature of the experiment: WRN ATPase assay (DNA dependent ATP hydrolysis, ADP-Glo). It is filed as biochemical. Conditions: 3 hours pre-incubation, 300 micromolar ATP, FLAP26 DNA; geometric mean of at least 2. Summed up:
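DNA-dependent ATP hydrolysis detected as ADP by ADP-Glo luminescence, using 300 μM ATP, 0.2 nM FLAP26 substrate and 10 nM WRN aa N517-P1238 (Tris pH 7.5 buffer, 2 mM MgCl2, 50 mM NaCl). IC50s fitted from normalized duplicate half-log dilutions; reported as geometric means of at least 2 replicates.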

For `CC(=O)N1CCN(c2c(C)n(CC(=O)Nc3ccc(C(F)(F)F)cc3)c3nc(N4CCC(N(C)CC(F)F)CC4)nn3c2=O)CC1` [Example 113, 2-(6-(4-acetylpiperazin-1-yl)-2-(4-((2,2-difluoroethyl)(methyl)amino)piperidin-1-yl)-5-methyl-7-oxo-[1,2,4]triazolo[1,5-a]pyrimidin-4(7H)-yl)-N-(4-(trifluoromethyl)phenyl)acetamide], the GI50 in the experiment on DLD1-WRN-KO cells is greater than 10 µM; with SW48 cells, 5 µM. This compound also showed an IC50 in experiment [1] of 300 nM.

Take `CC(=O)N1CCN(c2c(C)n(CC(=O)Nc3ccc(C(F)(F)F)cc3)c3nc(C4=CCC(N5CC(F)(F)C5)CC4)nn3c2=O)CC1` (stereo not drawn) [Example 114, 2-(6-(4-acetylpiperazin-1-yl)-2-(4-(3,3-difluoroazetidin-1-yl)cyclohex-1-en-1-yl)-5-methyl-7-oxo-[1,2,4]triazolo[1,5-a]pyrimidin-4(7H)-yl)-N-(4-(trifluoromethyl)phenyl) acetamide]: the GI50 in the experiment with DLD1-WRN-KO cells is greater than 10 µM; with SW48 cells it was 2 µM. For the same compound, the IC50 in experiment [1] was 400 nM.

Regarding `CC(=O)N1CCN(c2c(C)n(CC(=O)Nc3ccc(C(F)(F)F)cc3)c3nc(-c4ccccn4)nn3c2=O)CC1` [Example 115, 2-(6-(4-acetylpiperazin-1-yl)-5-methyl-7-oxo-2-(pyridin-2-yl)-[1,2,4]triazolo[1,5-a]pyrimidin-4(7H)-yl)-N-(4-(trifluoromethyl)phenyl)acetamide], the GI50 was 5 µM in the experiment on DLD1-WRN-KO cells and 2 µM in the experiment with SW48 cells. This compound gave an IC50 in experiment [1] of 500 nM.

In the case of `CC(=O)N1CCN(c2c(C)n(CC(=O)Nc3ccc(C(F)(F)F)cc3)c3nc(C4=CCC(F)(F)CC4)nn3c2=O)CC1` [Example 118, 2-(6-(4-acetylpiperazin-1-yl)-2-(4,4-difluorocyclohex-1-en-1-yl)-5-methyl-7-oxo-[1,2,4]triazolo[1,5-a]pyrimidin-4(7H)-yl)-N-(4-(trifluoromethyl)phenyl)acetamide], the GI50 with DLD1-WRN-KO cells was greater than 10 µM; in the experiment with SW48 cells, 9 µM. For the same compound, the IC50 in experiment [1] stood at 600 nM.

With `CC(=O)N1CCN(c2c(C)n(CC(=O)Nc3ccc(C(F)(F)F)cc3)c3nc(C4=CCN(CC(F)F)CC4)nn3c2=O)CC1` [Example 119, 2-(6-(4-acetylpiperazin-1-yl)-2-(1-(2,2-difluoroethyl)-1,2,3,6-tetrahydropyridin-4-yl)-5-methyl-7-oxo-[1,2,4]triazolo[1,5-a]pyrimidin-4(7H)-yl)-N-(4-(trifluoromethyl)phenyl)acetamide], the GI50 in the experiment on DLD1-WRN-KO cells is greater than 10 µM; in the experiment with SW48 cells it was 6 µM. It took 600 nM to reach half-maximal inhibition in experiment [1] (IC50).

Regarding `COCC1=CCN(c2nc3n(CC(=O)Nc4ccc(C(F)(F)F)cc4)c(C)c(N4CCN(C(C)=O)CC4)c(=O)n3n2)CC1` [Example 120, 2-(6-(4-acetylpiperazin-1-yl)-2-(4-(methoxymethyl)-3,6-dihydropyridin-1(2H)-yl)-5-methyl-7-oxo-[1,2,4]triazolo[1,5-a]pyrimidin-4(7H)-yl)-N-(4-(trifluoromethyl)phenyl)acetamide], the figures for the GI50 in the experiment on DLD1-WRN-KO cells and with SW48 cells were greater than 10 µM and 6 µM, respectively. The compound further gave an IC50 in experiment [1] of 600 nM.

Consider `CC(=O)N1CCN(c2c(C)n(CC(=O)Nc3ccc(C(F)(F)F)cc3)c3nc(N4CC=CCC4)nn3c2=O)CC1` [Example 121, 2-(6-(4-acetylpiperazin-1-yl)-2-(3,6-dihydropyridin-1(2H)-yl)-5-methyl-7-oxo-[1,2,4]triazolo[1,5-a]pyrimidin-4(7H)-yl)-N-(4-(trifluoromethyl)phenyl)acetamide], for which the GI50 in the experiment on DLD1-WRN-KO cells is greater than 10 µM; in the experiment on SW48 cells, 5 µM. Moreover, the IC50 in experiment [1] came to 700 nM.

For `CC(=O)N1CCN(c2c(C)n(CC(=O)Nc3ccc(C(F)(F)F)cc3)c3nc(N4CCC5(CCCO5)CC4)nn3c2=O)CC1` [Example 122, 2-(6-(4-acetylpiperazin-1-yl)-5-methyl-7-oxo-2-(1-oxa-8-azaspiro[4.5]decan-8-yl)-[1,2,4]triazolo[1,5-a]pyrimidin-4(7H)-yl)-N-(4-(trifluoromethyl)phenyl)acetamide], the GI50 is greater than 10 µM in the experiment with DLD1-WRN-KO cells and 5 µM in the experiment on SW48 cells. This compound also came in with an IC50 in experiment [1] of 700 nM.

Regarding `COC1CCN(c2nc3n(CC(=O)Nc4ccc(C(F)(F)F)cc4)c(C)c(N4CCN(C(C)=O)CC4)c(=O)n3n2)CC1` [Example 123, 2-(6-(4-acetylpiperazin-1-yl)-2-(4-methoxypiperidin-1-yl)-5-methyl-7-oxo-[1,2,4]triazolo[1,5-a]pyrimidin-4(7H)-yl)-N-(4-(trifluoromethyl)phenyl)acetamide], the GI50 is greater than 10 µM with DLD1-WRN-KO cells and 9 µM in the experiment on SW48 cells. For the same compound, the IC50 in experiment [1] is 700 nM.

With `CC(=O)N1CCN(c2c(C)n(CC(=O)Nc3ccc(C(F)(F)F)cc3)c3nc(-c4ccc(F)cc4)nn3c2=O)CC1` [Example 124, 2-(6-(4-acetylpiperazin-1-yl)-2-(4-fluorophenyl)-5-methyl-7-oxo-[1,2,4]triazolo[1,5-a]pyrimidin-4(7H)-yl)-N-(4-(trifluoromethyl)phenyl) acetamide], the GI50 with DLD1-WRN-KO cells was greater than 10 µM; in the experiment on SW48 cells, 4 µM. The same compound registered an IC50 in experiment [1] of 700 nM.

With `CC(=O)N1CCN(c2c(C)n(CC(=O)Nc3ccc(C(F)(F)F)cc3)c3nc(N4CC5CC5C4)nn3c2=O)CC1` (stereo not drawn) [Example 125, 2-(6-(4-acetylpiperazin-1-yl)-2-(3-azabicyclo[3.1.0]hexan-3-yl)-5-methyl-7-oxo-[1,2,4]triazolo[1,5-a]pyrimidin-4(7H)-yl)-N-(4-(trifluoromethyl)phenyl)acetamide], the GI50 with DLD1-WRN-KO cells was greater than 10 µM; in the experiment with SW48 cells it was 3 µM. The same compound displayed an IC50 in experiment [1] of 800 nM.

For `CC(=O)N1CCN(c2c(C)n(CC(=O)Nc3ccc(C(F)(F)F)cc3)c3nc(C4=CCCOC4)nn3c2=O)CC1` [Example 126, 2-(6-(4-acetylpiperazin-1-yl)-2-(5,6-dihydro-2H-pyran-3-yl)-5-methyl-7-oxo-[1,2,4]triazolo[1,5-a]pyrimidin-4(7H)-yl)-N-(4-(trifluoromethyl)phenyl)acetamide], the GI50 in the experiment on DLD1-WRN-KO cells is greater than 10 µM; in the experiment on SW48 cells it was 4 µM. In experiment [1], this compound showed an IC50 of 800 nM.

`CC(=O)N1CCN(c2c(C)n(CC(=O)Nc3ccc(S(F)(F)(F)(F)F)cc3)c3nc(C4=CCCCO4)nn3c2=O)CC1` [Example 127, 2-(6-(4-acetylpiperazin-1-yl)-2-(3,4-dihydro-2H-pyran-6-yl)-5-methyl-7-oxo-[1,2,4]triazolo[1,5-a]pyrimidin-4(7H)-yl)-N-(4-(pentafluoro-16-sulfaneyl)phenyl)acetamide]: the GI50 in the experiment with DLD1-WRN-KO cells is 7 µM; in the experiment on SW48 cells it was greater than 10 µM. The compound also returned an IC50 in experiment [1] of 20 nM.

Regarding `CC(=O)N1CCN(c2c(C)n(CC(=O)Nc3ccc(C(F)(F)F)cc3)c3nc(-c4cnn(C(F)F)c4)nn3c2=O)CC1` [Example 128, 2-(6-(4-acetylpiperazin-1-yl)-2-(1-(difluoromethyl)-1H-pyrazol-4-yl)-5-methyl-7-oxo-[1,2,4]triazolo[1,5-a]pyrimidin-4(7H)-yl)-N-(4-(trifluoromethyl)phenyl)acetamide], the GI50 in the experiment on DLD1-WRN-KO cells was greater than 10 µM; in the experiment on SW48 cells, 7 µM. In addition, the IC50 in experiment [1] was determined as 800 nM.

As for `CC(=O)N1CCN(c2c(C)n(CC(=O)Nc3ccc(Cl)c4c3CCC4)c3nc(C4=CCOCC4)nn3c2=O)CC1` [Example 129, 2-(6-(4-acetylpiperazin-1-yl)-2-(3,6-dihydro-2H-pyran-4-yl)-5-methyl-7-oxo-[1,2,4]triazolo[1,5-a]pyrimidin-4(7H)-yl)-N-(7-chloro-2,3-dihydro-1H-inden-4-yl)acetamide], the GI50 is greater than 10 µM in the experiment on DLD1-WRN-KO cells and 5 µM with SW48 cells. The compound also came in with an IC50 in experiment [1] of 800 nM.

`CC(=O)N1CCN(c2c(C)n(CC(=O)Nc3ccc(C(F)(F)F)cc3)c3nc(-c4ccccc4)nn3c2=O)CC1` [Example 130, 2-(6-(4-acetylpiperazin-1-yl)-5-methyl-7-oxo-2-phenyl-[1,2,4]triazolo[1,5-a]pyrimidin-4(7H)-yl)-N-(4-(trifluoromethyl)phenyl)acetamide]: the GI50 with DLD1-WRN-KO cells turned out to be 7 µM; in the experiment with SW48 cells it was 2 µM. In experiment [1], this compound yielded an IC50 of 900 nM.

Consider `CCON1CCN(c2nc3n(CC(=O)Nc4ccc(C(F)(F)F)cc4)c(C)c(N4CCN(C(C)=O)CC4)c(=O)n3n2)CC1` [Example 131, 2-(6-(4-acetylpiperazin-1-yl)-2-(4-ethoxypiperazin-1-yl)-5-methyl-7-oxo-[1,2,4]triazolo[1,5-a]pyrimidin-4(7H)-yl)-N-(4-(trifluoromethyl)phenyl)acetamide], for which the GI50 is greater than 10 µM in the experiment on DLD1-WRN-KO cells and 6 µM in the experiment with SW48 cells. In experiment [1], this compound displayed an IC50 of 1000 nM.

Turning to `CON1CCN(c2nc3n(CC(=O)Nc4ccc(C(F)(F)F)cc4)c(C)c(N4CCN(C(C)=O)CC4)c(=O)n3n2)CC1` [Example 132, 2-(6-(4-acetylpiperazin-1-yl)-2-(4-methoxypiperazin-1-yl)-5-methyl-7-oxo-[1,2,4]triazolo[1,5-a]pyrimidin-4(7H)-yl)-N-(4-(trifluoromethyl)phenyl)acetamide], the GI50 was greater than 10 µM in the experiment on DLD1-WRN-KO cells and 10 µM with SW48 cells. In experiment [1], this compound yielded an IC50 of 2000 nM.
